Source: patent US20170107173A1, “THERAPEUTIC COMPOUNDS AND METHODS” (UNIVERSITY OF IOWA RESEARCH FOUNDATION, priority 2015, published 2017)

Assays:
[1] = target: T1, human δ opioid receptor (DOP) over-expressed in CHO cells (Homo sapiens, UniProt P41143); test: [35S]GTPγS binding assay, functional antagonism (Ke) vs DPDPE; format: biochemical; settings: for Kb: [35S]GTPγS, agonist DPDPE, read-out: apparent affinity (Ke) of antagonists, DOP
T1 construct: host or cells: CHO cells; membrane homogenates
T1 sequence (P41143 whole entry): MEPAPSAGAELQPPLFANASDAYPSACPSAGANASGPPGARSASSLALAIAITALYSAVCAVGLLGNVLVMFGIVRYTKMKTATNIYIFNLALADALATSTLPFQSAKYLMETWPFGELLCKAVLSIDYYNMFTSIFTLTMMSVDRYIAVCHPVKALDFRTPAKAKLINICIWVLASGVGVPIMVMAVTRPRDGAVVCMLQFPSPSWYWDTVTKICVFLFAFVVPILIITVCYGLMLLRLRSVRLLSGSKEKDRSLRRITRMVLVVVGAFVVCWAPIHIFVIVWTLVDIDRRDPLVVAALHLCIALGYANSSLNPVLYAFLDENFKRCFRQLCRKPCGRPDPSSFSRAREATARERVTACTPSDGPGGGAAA
Protocol: (§1) All compounds were initially screened for intrinsic and antagonist activity at 10 μM in the [^35S]GTPγS binding assay at the human κ, and the μ, and δ opioid receptors over-expressed in CHO cells. These cell lines were kindly provided by Temple University (κ) and SRI International (μ and δ). Compounds identified as antagonist were characterized for functional antagonism (Ke) and selectivity by measuring the ability of the test compounds to inhibit stimulated [^35S]GTPγS binding produced by one of the selective agonists DAMGO (μ), DPDPE (δ), or U69,593 (κ). Agonist concentration-response curves were run in the presence or absence of a single concentration of test compound.
(§2) The test compounds were assayed in duplicate in 1.4-mL polypropylene tubes in a 96-well format. CHO membrane homogenates (20-40 µg protein) were incubated with a positive control or the test compound, 0.1 nM [^35S]GTP-γ-S and 1 μM GDP in 50 mM HEPES buffer (pH 7.4) at room temperature for 1 h, after which bound radioligand was separated from free radioligand via rapid vacuum filtration over GF-B filters with a Brandel Scientific (Gaithersburg, Md.) 96-well harvester. Bound radioactivity is determined using a TopCount 12-detector instrument (Packard Instruments) using standard scintillation counting techniques. Bound radioactivity is normalized to samples containing vehicle (basal binding). […] The Ke values were calculated using the formula Ke=[L]/DR−1, where [L] is the concentration of test compound, and DR is the ratio of agonist EC50 value in the presence or absence of test compound.

[2] = target: T2, human κ opioid receptor (KOP) over-expressed in CHO cells (Homo sapiens, UniProt P41145); test: [35S]GTPγS binding assay, functional antagonism (Ke) vs U69,593; format: biochemical; settings: agonist U69,593, read-out: apparent affinity (Ke) of antagonists, KOP
T2 construct: host or cells: CHO cells; membrane homogenates
T2 sequence (P41145 whole entry): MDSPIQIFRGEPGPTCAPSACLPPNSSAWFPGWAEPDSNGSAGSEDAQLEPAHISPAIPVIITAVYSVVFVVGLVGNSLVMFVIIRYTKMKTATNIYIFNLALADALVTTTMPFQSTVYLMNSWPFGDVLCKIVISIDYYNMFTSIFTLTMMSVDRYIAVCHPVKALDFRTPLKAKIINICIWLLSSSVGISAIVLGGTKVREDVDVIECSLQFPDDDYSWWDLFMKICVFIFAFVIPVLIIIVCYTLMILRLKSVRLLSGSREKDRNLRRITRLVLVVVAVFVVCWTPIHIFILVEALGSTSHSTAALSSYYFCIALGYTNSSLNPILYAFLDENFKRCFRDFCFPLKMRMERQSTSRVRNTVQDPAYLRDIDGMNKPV
Protocol: as §1, §2

[3] = target: T3, human μ opioid receptor (MOP) over-expressed in CHO cells (Homo sapiens, UniProt P35372); test: [35S]GTPγS binding assay, functional antagonism (Ke) vs DAMGO; format: biochemical; settings: agonist DAMGO, read-out: apparent affinity (Ke) of antagonists, MOP
T3 construct: host or cells: CHO cells; membrane homogenates
T3 sequence (P35372 whole entry): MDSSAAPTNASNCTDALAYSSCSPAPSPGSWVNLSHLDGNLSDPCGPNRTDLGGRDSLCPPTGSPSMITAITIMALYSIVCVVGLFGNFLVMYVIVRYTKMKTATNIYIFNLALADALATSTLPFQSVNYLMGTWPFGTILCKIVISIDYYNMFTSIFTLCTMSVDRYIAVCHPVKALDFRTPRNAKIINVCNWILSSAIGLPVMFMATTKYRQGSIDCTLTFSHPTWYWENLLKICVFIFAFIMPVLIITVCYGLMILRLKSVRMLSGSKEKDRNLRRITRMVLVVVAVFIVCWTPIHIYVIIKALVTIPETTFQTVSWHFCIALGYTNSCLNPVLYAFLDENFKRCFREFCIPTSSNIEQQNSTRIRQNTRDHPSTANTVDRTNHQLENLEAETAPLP
Protocol: as §1, §2

[4] = target: T2, human κ opioid receptor (KOP) over-expressed in CHO cells; settings: from Hartung et al., cited from earlier work; for Ke at the KOP: J. Nat. Prod. 2014, 77, 311
[5] = system: human κ, μ and δ opioid receptors over-expressed in CHO cells; test: [35S]GTPγS binding assay, screen for intrinsic agonist activity; format: biochemical; settings: screened at 10 μM
Protocol: as §1
The test compounds were assayed in duplicate in 1.4-mL polypropylene tubes in a 96-well format. […] Bound radioactivity is determined using a TopCount 12-detector instrument (Packard Instruments) using standard scintillation counting techniques. Bound radioactivity is normalized to samples containing vehicle (basal binding). […] The Ke values were calculated using the formula Ke=[L]/DR−1, where [L] is the concentration of test compound, and DR is the ratio of agonist EC50 value in the presence or absence of test compound. […]

Kb [1] [nM]	Kb [2] [nM]	Kb [3] [nM]	KOP/DOP selectivity ([1]; ratio of Ke values)	MOP/DOP selectivity ([1]; ratio of Ke values)	SMILES	Ke at the KOP [4] [µM]	δ/κ selectivity ([4]; J. Nat. Prod. 2014)	μ/κ selectivity ([4]; J. Nat. Prod. 2014)	intrinsic agonist activity [5]
2900	200	570000	–	–	CC(C)=CCC/C(C)=C/Cc1c(O)cc(O)cc1/C=C/c1ccc(O)c(O)c1CC=C(C)C [Compound 1, pawhuskin A]	0.20	–	–	–
> 10000	150	> 10000	–	–	COc1cc(/C=C/c2cc(O)c(O)c(CC=C(C)C)c2)c(C/C=C(\C)CCC=C(C)C)c(OC)c1 [Compound 3, 5-((E)-2-((E)-3,7-dimethylocta-2,6-dien-1-yl)-3,5-dimethoxystyryl)-3-(3-methylbut-2-en-1-yl)benzene-1,2-diol]	0.15	> 67	> 67	–
25	> 10000	> 10000	> 400	> 400	COc1cc(/C=C/c2ccc(O)c(O)c2CC=C(C)C)c(C/C=C(\C)CCC=C(C)C)c(OC)c1 [Compound 4]	–	–	–	no agonist activity
